{"source": "paper PMC4482483", "about": "“Cationic Cell-Penetrating Peptides Are Potent Furin Inhibitors” (PLoS ONE, 2015)", "key": {"soluble human furin [1]": {"biological_target": "T1, soluble human furin (Homo sapiens, UniProt P09958)", "T1 construct": "Soluble human furin was purified from the conditioned medium; made in house; host or cells: CHO DG44 cells (stably transfected, methotrexate-amplified); purified from conditioned medium", "T1 sequence (P09958 108-715 limits assumed)": "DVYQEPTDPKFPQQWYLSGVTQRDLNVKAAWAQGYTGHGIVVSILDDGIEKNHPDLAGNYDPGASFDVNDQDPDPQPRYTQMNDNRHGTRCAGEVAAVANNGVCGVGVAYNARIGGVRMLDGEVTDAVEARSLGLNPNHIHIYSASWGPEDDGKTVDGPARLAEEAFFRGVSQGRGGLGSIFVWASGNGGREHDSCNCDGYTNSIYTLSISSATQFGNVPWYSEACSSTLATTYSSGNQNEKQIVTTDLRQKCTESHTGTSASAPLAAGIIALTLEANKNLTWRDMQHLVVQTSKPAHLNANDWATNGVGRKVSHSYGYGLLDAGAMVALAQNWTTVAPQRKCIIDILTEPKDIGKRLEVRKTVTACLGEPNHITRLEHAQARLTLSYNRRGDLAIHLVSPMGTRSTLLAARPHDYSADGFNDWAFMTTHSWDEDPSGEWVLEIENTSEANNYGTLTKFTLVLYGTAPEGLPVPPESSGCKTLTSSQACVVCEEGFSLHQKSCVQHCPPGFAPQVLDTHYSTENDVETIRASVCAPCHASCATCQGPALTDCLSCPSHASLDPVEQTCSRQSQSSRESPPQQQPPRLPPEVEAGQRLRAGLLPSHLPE", "assay": "furin enzyme assay with fluorogenic substrate pERTKR-mca", "assay_type": "biochemical", "details": "for furin inhibition: peptide at 100 μM, 100 μM pERTKR-mca, Fig 1", "experimental": "Soluble human furin was purified from the conditioned medium of stably-transfected, methotrexate-amplified CHO DG44 cells, as previously described. […] The HIV-1 TAT47-57 peptide was purchased from Creative Peptides (Shirley, NY). The Chariot reagent was purchased from Active Motif (Carlsbad, CA). […] The fourth peptide (W4-[R5]; N-acetyl-WWWW-[KRRRRR]) is N-terminally acetylated.\nThe furin assay was performed in 96-well polypropylene microtiter plates in a final volume of 50 μl, containing 100 mM HEPES, pH 7.0, 5 mM CaCl2, 0.1% Brij 35, 0.1% NaN3, and 0.1 mg/ml BSA. The substrate p-Glu-Arg-Thr-Lys-Arg-4-methylcoumaryl-7-amide (pERTKR-mca; Peptide Institute, Lexington, KY) was used at a final concentration of 100 μM. Furin was used at a final concentration of 20 nM. Reaction mixtures were incubated at 37°C and fluorescence measurements (380 nm excitation, 460 nm emission) were taken under kinetic conditions every minute for 60 min in a SpectraMax M2 microplate reader. […] After a 30-min preincubation at room temperature, 100 μM of pERTKR-methylaminocoumarin (mca) was added, and residual enzyme activities were monitored by measuring mca fluorescence intensity. Data were analyzed using Prism 5 as described previously. Due to cost considerations, Ki determinations were not performed for the HIV TAT peptide or for the Chariot reagent.\nSoluble human furin, pre-incubated for 20 min at room temperature in the presence of (a) HIV-1 TAT (47–57) or (b) Chariot peptide, was tested at the specified concentrations. Furin activity was assessed by measuring the release of the fluorescent mca product from the fluorogenic substrate, pERTKR-mca."}, "[2]": {"system": "HT1080 fibrosarcoma cells", "assay": "Oris cell migration assay", "assay_type": "cell-based", "details": "10 μM peptide", "experimental": "HT1080 fibrosarcoma cells (ATCC# CCL-121) were cultured to 80% confluence in growth medium (MEM (Earle’s salts + L-glutamine) 10% FBS, 1:100 non-essential amino acids (NEAA), 1 mM sodium pyruvate, 500 U/ml penicillin-streptomycin, and 1% gentamycin; Life Technologies). Cells were plated in an Oris Cell Migration Assay (Platypus Technologies) 96-well plate at 10^5 cells per well, following the manufacturer’s protocol. The next day, the growth medium was removed, the wells rinsed with PBS, and the cells were incubated in assay medium MEM (Earle’s salts + L-glutamine) containing 10% heat-inactivated FBS, 1:100 NEAA, 1 mM sodium pyruvate, 500U/ml penicillin-streptomycin, and 1% gentamycin in the presence or absence of inhibitors for 24 h at 37°C and 5% CO2. After incubation cells were rinsed with PBS (calcium and 20 mM HEPES, pH 7.4, as per the manufacturer’s protocol), and incubated with the Live / Dead Cell Stain Kit containing 2 μM calcein AM and 4 μM ethidium homodimer (EthD-1) for 30 min at 37°C and 5% CO2. Fluorescence was then measured at 485/528 nm excitation/emission for calcein AM, and 530/645 nm for EthD-1. […]\nFig 2 Effect of HIV-1 TAT47-57 peptide on cell migration of fibrosarcoma HT1080 cells. Cells were incubated with either 10 μM of peptide or vehicle (water) for 24 h at 37°C and cell migration was measured as described in “Materials and Methods”. […]"}, "soluble human furin [3]": {"biological_target": "T1, soluble human furin", "details": "cited from earlier work; for Ki: furin"}, "[4]": {"system": "intracellular convertase activity in CHO-GRAPfurin cells", "assay": "SEAP activity assay (GRAPfurin Golgi reporter)", "assay_type": "cell-based", "details": "1 μM, 20–24 h at 37 °C", "experimental": "CHO-GRAPfurin cells expressing the hybrid reporter protein GRAPfurin, consisting of the secreted alkaline phosphatase (SEAP) protein fused to a Golgi retention signal and a specific furin recognition/cleavage site, […] The medium was collected, centrifuged, and heated for 30 min at 65°C to inactivate non-relevant phosphatases. To test SEAP activity, 2.5 μl of heated medium was mixed with 100 μl of assay buffer (100 mM Tris-HCl, pH 10, 100 mM NaCl, 5 mM MgCl2) and 100 μl of 36 μM 4-methylumbelliferyl phosphate (MUP), a phosphatase substrate, made in 50 mM Tris-HCl, pH 10. Fluorescence was measured every 20 seconds after excitation at 365 nm and recording emission at 460 nm at 37°C for 1 h. Since SEAP released from the tethered furin reporter is secreted, SEAP levels in the medium are proportional to the activity of Golgi furin [24, 25]. The experiments were independently repeated three times using triplicate wells per condition.\nFig 4 Cyclic polyarginine peptides inhibit cellular convertase activity. (a) CHO cells were incubated with each compound at 1 μM for 24 h at 37°C, and cell viability was monitored by incubation for 4 h with WST-1. […] Secreted alkaline phosphatase activity was measured in the medium. […]"}}, "note": "Where two headings read alike, the source gives them in different places.", "data": [{"molecule": "N=C(N)NCCC[C@H](NC(=O)[C@H](CCCNC(=N)N)NC(=O)[C@H](CCCNC(=N)N)NC(=O)[C@H](CCC(N)=O)NC(=O)[C@H](CCCNC(=N)N)NC(=O)[C@H](CCCNC(=N)N)NC(=O)[C@H](CCCCN)NC(=O)[C@H](CCCCN)NC(=O)[C@H](CCCNC(=N)N)NC(=O)CNC(=O)[C@@H](N)Cc1ccc(O)cc1)C(=O)O", "note": "[HIV-1 TAT47-57, YGRKKRRQRRR]", "values": [{"measurement": "furin inhibition", "setting": "soluble human furin [1]", "result": "nearly complete"}, {"measurement": "inhibition at 10 µM", "setting": "soluble human furin [1]; read-out: furin inhibition", "result": "~60", "unit": "%"}, {"measurement": "toxicity to HT1080 cells", "setting": "[2]", "result": "non-toxic"}]}, {"molecule": "Nona-D-arginine amide", "values": [{"measurement": "inhibition constants against furin and other convertases", "setting": "soluble human furin [3]", "result": "nanomolar range"}, {"measurement": "Ki", "setting": "soluble human furin [3]", "result": "1.3 ± 2", "unit": "nM"}]}, {"molecule": "N=C(N)NCCC[C@@H]1NC(=O)[C@H](Cc2c[nH]c3ccccc23)NC(=O)[C@H](CS)NC(=O)[C@H](Cc2c[nH]c3ccccc23)NC(=O)[C@H](CCCNC(=N)N)NC(=O)[C@H](Cc2c[nH]c3ccccc23)NC(=O)[C@H](CCCNC(=N)N)NC(=O)[C@H](Cc2c[nH]c3ccccc23)NC(=O)[C@H](CCCNC(=N)N)NC(=O)[C@H](Cc2c[nH]c3ccccc23)NC1=O", "note": "[[W5R4C], [WRWRWRWRWC]]", "values": [{"measurement": "Ki", "setting": "soluble human furin [1]", "result": "340 ± 20", "unit": "nM"}]}, {"molecule": "hexa-D-arginine amide", "values": [{"measurement": "inhibition constants against furin and other convertases", "setting": "soluble human furin [3]", "result": "nanomolar range"}, {"measurement": "Ki", "setting": "soluble human furin [3]", "result": "106 ± 10", "unit": "nM"}]}, {"molecule": "CC(=O)N[C@@H](Cc1c[nH]c2ccccc12)C(=O)N[C@@H](Cc1c[nH]c2ccccc12)C(=O)N[C@@H](Cc1c[nH]c2ccccc12)C(=O)N[C@@H](Cc1c[nH]c2ccccc12)C(=O)NCCCC[C@@H]1NC(=O)[C@H](CCCNC(=N)N)NC(=O)[C@H](CCCNC(=N)N)NC(=O)[C@H](CCCNC(=N)N)NC(=O)[C@H](CCCNC(=N)N)NC(=O)[C@H](CCCNC(=N)N)NC1=O", "note": "[W4-[R5], N-acetyl-WWWW-[KRRRRR]]", "values": [{"measurement": "Ki", "setting": "soluble human furin [1]", "result": "100 ± 140", "unit": "nM"}, {"measurement": "inhibition of intracellular convertase activity (SEAP release)", "setting": "[4]", "result": "most effective compound in cells"}]}, {"molecule": "KETWWETWWTEWSQPKKKRKV [Chariot]", "values": [{"measurement": "furin inhibition", "setting": "soluble human furin [1]", "result": "~ 60%"}]}]}
